Patent US12290596B2, “Compositions and methods for the treatment of opioid overdose” (priority 2021, dated 2025)

Experiment: Safety and tolerability of IN nalmefene, adverse events (Example 13)
Assay type: in vivo, human (healthy volunteers)
From the text: Safety: The Investigator evaluated safety using the following assessments: reported or observed AEs, clinical laboratory evaluations, vital sign measurements, physical examinations, ECGs (including telemetry), nasal irritation determined from nasal passage examinations, and NRS to determine acute nasal pain.

[1] = Treatment B (6 mg, 1 spray in each nostril)
[2] = Treatment C (6 mg, 2 sprays in 1 nostril)

C=C1CC[C@@]2(O)[C@H]3Cc4ccc(O)c5c4[C@@]2(CCN3CC2CC2)[C@H]1O5 [Nalmefene, 17-cyclopropylmethyl-4,5α-epoxy-6-methylenemorphinan-3,14-diol]
Tolerability (3 mg and 6 mg dose, fasted healthy subjects): well-tolerated | Nasal congestion, instances (Treatment A): 1 | Nasal discomfort, instances (Treatment A): 1 | Nausea, instances (Treatment A): 1 | Number of AEs reported (Treatment A (3 mg)): 20 | Subjects reporting AEs (Treatment A (3 mg)): 43.5% | Nasal congestion, instances (Treatment B): 2 | Nausea, instances (Treatment B): 5 | Number of AEs reported [1]: 24 | Subjects reporting AEs [1]: 60.9% | Nasal congestion, instances (Treatment C): 4 | Nasal discomfort, instances (Treatment C): 3 | Nausea, instances (Treatment C): 1 | Number of AEs reported [2]: 24 | Subjects reporting AEs [2]: 58.3% | Serious AEs or AEs leading to withdrawal or death (all treatments): no serious AEs | Severity of TEAEs (all treatments): mild
